Measurements as given in patent publication US20240409585A1, “MACROCYCLIC IMMUNOMODULATORS” (priority 2021, published 2024).
Where two headings read alike, the source gives them in different places. Bridge positions count the residues as written; N and C are the ends. Square brackets hold non-standard residues; d marks the D form. Peptide text beside a SMILES is read from it. * marks the point of attachment. ξ: configuration not given here. Tyr(3-NO2) = N[C@@H](Cc1ccc(O)c([N+](=O)[O-])c1)C(=O)O; Phe(4-COOH) = N[C@@H](Cc1ccc(C(=O)O)cc1)C(=O)O; dPhe(4-CN) = N#Cc1ccc(C[C@@H](N)C(=O)O)cc1; Bip = N[C@@H](Cc1ccc(-c2ccccc2)cc1)C(=O)O; Phe(3-Me) = Cc1cccc(C[C@H](N)C(=O)O)c1; 1Nal = N[C@@H](Cc1cccc2ccccc12)C(=O)O; Val(3-OH) = CC(C)(O)[C@H](N)C(=O)O; 3Pal = N[C@@H](Cc1cccnc1)C(=O)O; 4Pal = N[C@@H](Cc1ccncc1)C(=O)O; Cha = N[C@@H](CC1CCCCC1)C(=O)O; Cit = NC(=O)NCCC[C@H](N)C(=O)O; Ile(3ξ) = CCC(C)[C@H](N)C(=O)O; Thr(3ξ) = CC(O)[C@H](N)C(=O)O; ξCha = NC(CC1CCCCC1)C(=O)O; Pip = O=C(O)[C@@H]1CCCCN1; Carboxymethyl = O=C(O)C*; NMeA = CN[C@@H](C)C(=O)O; Nle = CCCC[C@H](N)C(=O)O; Dab = NCC[C@H](N)C(=O)O; Dap = NC[C@H](N)C(=O)O; ξC = NC(CS)C(=O)O

Molecular target: T1, PE-labeled human PD-L1-Ig binding to Jurkat cell line over-expressing human PD-1 (Jurkat-PD-1) (Homo sapiens, UniProt Q15116)
T1 construct: expressed in transfected cells; host or cells: Jurkat
Assay: Jurkat-PD-1 Cell Binding High-Content Screening Assay (CBA): Method 1

[1] = Jurkat-hPD-1 cells, PE-labeled PD-L1-Ig 20 nM final, read-out: Jurkat HPDL1 PD1 IC50 (uM) (Method 1)

T1 sequence (Q15116 25-288): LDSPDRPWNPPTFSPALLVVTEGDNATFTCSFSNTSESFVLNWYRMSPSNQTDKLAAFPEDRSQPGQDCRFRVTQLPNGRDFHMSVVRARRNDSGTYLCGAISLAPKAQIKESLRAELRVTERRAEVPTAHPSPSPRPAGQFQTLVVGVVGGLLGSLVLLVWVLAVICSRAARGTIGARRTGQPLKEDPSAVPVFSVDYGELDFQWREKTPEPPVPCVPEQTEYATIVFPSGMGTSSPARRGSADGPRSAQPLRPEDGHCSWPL

Structure (SMILES) | IC50 [1] [µM] | IC50 (Jurkat-PD-1 cells, PE-labeled PD-L1-Ig, μM, read-out: CBA Method 1 μM) [µM]
CC(=O)NCCCC[C@@H]1NC(=O)[C@H](C(C)C)NC(=O)[C@H](CC2CCCCC2)NC(=O)[C@H](CCN)NC(=O)[C@@H](CC(C)C)NC(=O)[C@H](C)N(C)C(=O)[C@H](CCC(N)=O)NC(=O)[C@H](Cc2ccc(-c3ccccc3)cc2)NC(=O)[C@H](Cc2ccc(OCC(=O)O)cc2)NC(=O)[C@H](Cc2cccc(C)c2)NC(=O)[C@H](CC(=O)O)NC(=O)[C@H](Cc2ccc(OCC(=O)O)cc2)NC(=O)[C@H](Cc2ccncc2)NC(=O)CSC[C@@H](C(=O)N[C@@H](CCN)C(N)=O)NC1=O [Compound 2203] ({CH2CO}-[4Pal]Y(Carboxymethyl)D[Phe(3-Me)]Y(Carboxymethyl)[Bip]Q[NMeA][dL][Dab][Cha]VK(Ac)C[Dab]-NH2; thioether N-14) | 0.01 | –
CC(C)C[C@@H]1NC(=O)[C@H](CCN)NC(=O)[C@@H](CC(C)C)NC(=O)[C@H](C)N(C)C(=O)[C@H](CCCNC(=N)N)NC(=O)[C@H](Cc2ccc(-c3ccccc3)cc2)NC(=O)[C@H](C(C)C)NC(=O)[C@H](Cc2c[nH]c3ccccc23)NC(=O)[C@H](CC(=O)O)NC(=O)[C@H](Cc2ccc(O)c([N+](=O)[O-])c2)NC(=O)[C@H](CC(N)=O)NC(=O)CSC[C@@H](C(=O)N[C@@H](C)C(N)=O)NC(=O)[C@H]([C@@H](C)O)NC(=O)[C@H](C(C)C)NC1=O [Compound 1160] ({CH2CO}-N[Tyr(3-NO2)]DWV[Bip]R[NMeA][dL][Dab]LVTCA-NH2; thioether N-14) | 0.03 | –
Cc1cccc(C[C@@H]2NC(=O)[C@H](CC(=O)O)NC(=O)[C@H](Cc3ccc(OCC(=O)O)cc3)NC(=O)[C@H](Cc3ccncc3)NC(=O)CSC[C@@H](C(=O)N[C@H](CC(N)=O)C(N)=O)NC(=O)[C@H](CO)NC(=O)[C@H](C(C)(C)O)NC(=O)[C@H](CC3CCCCC3)NC(=O)[C@H](CCN)NC(=O)[C@@H](CC(C)C)NC(=O)[C@H](C)N(C)C(=O)[C@H](Cc3ccc(O)cc3)NC(=O)[C@H](Cc3ccc(-c4ccccc4)cc3)NC(=O)[C@H](Cc3ccc(O)cc3)NC2=O)c1 [Compound 2140] ({CH2CO}-[4Pal]Y(Carboxymethyl)D[Phe(3-Me)]Y[Bip]Y[NMeA][dL][Dab][Cha][Val(3-OH)]SC[dN]-NH2; thioether N-14) | 0.1 | –
CC(C)C[C@@H]1NC(=O)[C@H](CCCNC(=N)N)NC(=O)[C@@H](Cc2ccc(C#N)cc2)NC(=O)[C@H](C)N(C)C(=O)[C@H](CCCNC(=N)N)NC(=O)[C@H](Cc2ccc(-c3ccccc3)cc2)NC(=O)[C@H](C(C)C)NC(=O)[C@H](Cc2c[nH]c3ccccc23)NC(=O)[C@H](CC(=O)O)NC(=O)[C@H](Cc2ccc(O)cc2)NC(=O)[C@H](Cc2ccccc2)NC(=O)CSC[C@@H](C(=O)N[C@@H](C)C(N)=O)NC(=O)[C@H]([C@@H](C)O)NC(=O)[C@H](C(C)C)NC1=O [Compound 1107] ({CH2CO}-FYDWV[Bip]R[NMeA][dPhe(4-CN)]RLVTCA-NH2; thioether N-14) | 0.07 | –
Cc1cccc(C[C@@H]2NC(=O)[C@H](CC(=O)O)NC(=O)[C@H](Cc3ccc(OCC(=O)O)cc3)NC(=O)[C@H](C(C)O)NC(=O)CSC[C@@H](C(=O)N[C@@H](CO)C(=O)NCC(=O)N[C@@H](CO)C(N)=O)NC(=O)[C@H](C(C)O)NC(=O)[C@H](C(C)C)NC(=O)C(CC3CCCCC3)NC(=O)[C@H](CCN)NC(=O)[C@@H](CC(C)C)NC(=O)[C@H](C)N(C)C(=O)[C@H](Cc3ccc(OCC(=O)O)cc3)NC(=O)[C@H](Cc3ccc(-c4ccccc4)cc3)NC(=O)[C@H](Cc3ccc(C(=O)O)cc3)NC2=O)c1 (stereo partly drawn) [Example 5004] ({CH2CO}-[Thr(3ξ)]Y(Carboxymethyl)D[Phe(3-Me)][Phe(4-COOH)][Bip]Y(Carboxymethyl)[NMeA][dL][Dab][ξCha]V[Thr(3ξ)]CSGS-NH2; thioether N-14) | – | 0.03
CCCC[C@@H]1NC(=O)[C@H](CCN)NC(=O)[C@@H](CC(C)C)NC(=O)[C@H](C)N(C)C(=O)[C@H](CCCNC(=N)N)NC(=O)[C@H](Cc2ccc(-c3ccccc3)cc2)NC(=O)[C@H](C(C)C)NC(=O)[C@H](Cc2c[nH]c3ccccc23)NC(=O)[C@H](CC(=O)O)NC(=O)[C@H](Cc2ccc(O)cc2)NC(=O)[C@H](CC(N)=O)NC(=O)CSC[C@@H](C(=O)N[C@@H](C)C(N)=O)NC(=O)[C@H]([C@@H](C)O)NC(=O)[C@H](C(C)C)NC1=O [Compound 1283] ({CH2CO}-NYDWV[Bip]R[NMeA][dL][Dab][Nle]VTCA-NH2; thioether N-14) | 0.04 | –
CC(C)C[C@@H]1NC(=O)[C@H](CCN)NC(=O)[C@@H](CC(C)C)NC(=O)[C@H](C)N(C)C(=O)[C@H](CCCNC(=N)N)NC(=O)[C@H](Cc2ccc(-c3ccccc3)cc2)NC(=O)[C@H](C(C)C)NC(=O)[C@H](Cc2c[nH]c3ccccc23)NC(=O)[C@H](CC(=O)O)NC(=O)[C@H](Cc2ccncc2)NC(=O)[C@H](Cc2cccnc2)NC(=O)CSC[C@@H](C(=O)N[C@@H](C)C(N)=O)NC(=O)[C@H]([C@@H](C)O)NC(=O)[C@H](C(C)C)NC1=O [Compound 1147] ({CH2CO}-[3Pal][4Pal]DWV[Bip]R[NMeA][dL][Dab]LVTCA-NH2; thioether N-14) | 0.02 | –
CCC(C)[C@@H]1NC(=O)[C@H](Cc2ccc(-c3ccccc3)cc2)NC(=O)[C@H](C(C)C)NC(=O)[C@H](Cc2c[nH]c3ccccc23)NC(=O)[C@H](CC(=O)O)NC(=O)[C@H](Cc2ccc(O)cc2)NC(=O)[C@H](Cc2ccncc2)NC(=O)CSCC(C(=O)N[C@@H](CCN)C(=O)O)NC(=O)[C@H](C(C)O)NC(=O)[C@H](C(C)C)NC(=O)[C@H](CC2CCCCC2)NC(=O)[C@H](CC(N)=O)NC(=O)[C@@H](CC(C)C)NC(=O)[C@H](C)N(C)C1=O (stereo partly drawn) [Compound 2213] ({CH2CO}-[4Pal]YDWV[Bip][Ile(3ξ)][NMeA][dL]N[Cha]V[Thr(3ξ)][ξC][Dab]-OH; thioether N-14) | 0.02 | –
CC(C)C[C@@H]1NC(=O)[C@H](CCN)NC(=O)[C@@H](CC(C)C)NC(=O)[C@H](C)N(C)C(=O)[C@H](CCCNC(=N)N)NC(=O)[C@H](Cc2ccc(-c3ccccc3)cc2)NC(=O)[C@H](C(C)C)NC(=O)[C@H](Cc2c[nH]c3ccccc23)NC(=O)[C@H](CC(=O)O)NC(=O)[C@H](Cc2ccc(O)cc2)NC(=O)[C@H](CC(N)=O)NC(=O)CSC[C@@H](C(=O)N[C@@H](CCC(=O)O)C(N)=O)NC(=O)[C@H]([C@@H](C)O)NC(=O)[C@H](C(C)C)NC1=O [Compound 1172] ({CH2CO}-NYDWV[Bip]R[NMeA][dL][Dab]LVTCE-NH2; thioether N-14) | 0.29 | –
Cc1cccc(C[C@@H]2NC(=O)[C@H](CC(=O)O)NC(=O)[C@H](Cc3ccc(OCC(=O)O)cc3)NC(=O)[C@H](CN)NC(=O)CSC[C@@H](C(N)=O)NC(=O)[C@H](CC(N)=O)NC(=O)[C@H](C(C)C)NC(=O)[C@H](CC3CCCCC3)NC(=O)[C@H](CCN)NC(=O)[C@@H](CC(C)C)NC(=O)[C@@H]3CCCCN3C(=O)[C@H](Cc3ccc(OCC(=O)O)cc3)NC(=O)[C@H](Cc3ccc(-c4ccccc4)cc3)NC(=O)[C@H](Cc3ccc(OCC(=O)O)cc3)NC2=O)c1 [Compound 1895] ({CH2CO}-[Dap]Y(Carboxymethyl)D[Phe(3-Me)]Y(Carboxymethyl)[Bip]Y(Carboxymethyl)[Pip][dL][Dab][Cha]VNC-NH2; thioether N-14) | 0.11 | –
CC(C)C[C@@H]1NC(=O)[C@H](CCN)NC(=O)[C@@H](CC(C)C)NC(=O)[C@H](C)N(C)C(=O)[C@H](CCCNC(N)=O)NC(=O)[C@H](Cc2ccc(-c3ccccc3)cc2)NC(=O)[C@H](C(C)C)NC(=O)[C@H](Cc2c[nH]c3ccccc23)NC(=O)[C@H](CC(=O)O)NC(=O)[C@H](Cc2ccc(OCC(=O)O)cc2)NC(=O)[C@H](Cc2cccnc2)NC(=O)CSC[C@@H](C(=O)N[C@@H](C)C(N)=O)NC(=O)[C@H]([C@@H](C)O)NC(=O)[C@H](C(C)C)NC1=O [Compound 1331] ({CH2CO}-[3Pal]Y(Carboxymethyl)DWV[Bip][Cit][NMeA][dL][Dab]LVTCA-NH2; thioether N-14) | 0.01 | –
CC(C)C[C@@H]1NC(=O)[C@H](CCCNC(=N)N)NC(=O)[C@H](Cc2cccc3ccccc23)NC(=O)[C@H](C)N(C)C(=O)[C@H](CCCNC(=N)N)NC(=O)[C@H](Cc2ccc(-c3ccccc3)cc2)NC(=O)[C@H](C(C)C)NC(=O)[C@H](Cc2c[nH]c3ccccc23)NC(=O)[C@H](CC(=O)O)NC(=O)[C@H](Cc2ccc(O)cc2)NC(=O)[C@H](Cc2ccccc2)NC(=O)CSC[C@@H](C(=O)NCC(N)=O)NC(=O)[C@H](CO)NC(=O)[C@H](C(C)C)NC1=O [Compound 1012] ({CH2CO}-FYDWV[Bip]R[NMeA][1Nal]RLVSCG-NH2; thioether N-14) | 0.13 | –
CC(C)C[C@@H]1NC(=O)[C@H](CCN)NC(=O)[C@@H](CC(C)C)NC(=O)[C@H](C)N(C)C(=O)[C@H](CCCNC(=N)N)NC(=O)[C@H](Cc2ccc(-c3ccccc3)cc2)NC(=O)[C@H](C(C)C)NC(=O)[C@H](Cc2c[nH]c3ccccc23)NC(=O)[C@H](CC(=O)O)NC(=O)[C@H](Cc2ccc(C(=O)O)cc2)NC(=O)[C@H](Cc2cnc[nH]2)NC(=O)CSC[C@@H](C(=O)N[C@@H](C)C(N)=O)NC(=O)[C@H]([C@@H](C)O)NC(=O)[C@H](C(C)C)NC1=O [Compound 1151] ({CH2CO}-H[Phe(4-COOH)]DWV[Bip]R[NMeA][dL][Dab]LVTCA-NH2; thioether N-14) | 0.04 | –
CC(C)C[C@H]1NC(=O)[C@H](C)N(C)C(=O)[C@H](CCC(=O)O)NC(=O)[C@H](Cc2ccc(-c3ccccc3)cc2)NC(=O)[C@H](C(C)C)NC(=O)[C@H](Cc2c[nH]c3ccccc23)NC(=O)[C@H](CC(N)=O)NC(=O)[C@H](Cc2ccc(O)cc2)NC(=O)[C@H](Cc2ccncc2)NC(=O)CSC[C@@H](C(=O)N[C@@H](C)C(N)=O)NC(=O)[C@H](C(C)O)NC(=O)[C@H](C(C)C)NC(=O)[C@H](CC2CCCCC2)NC(=O)[C@H](CCN)NC1=O (stereo partly drawn) [Compound 2088] ({CH2CO}-[4Pal]YNWV[Bip]E[NMeA][dL][Dab][Cha]V[Thr(3ξ)]CA-NH2; thioether N-14) | 0.17 | –
